Test results taken from the supplement of paper PMC11061612.

Legend:
KP-N-YN (Neuroblastoma) = assay: Bliss excess, mean over the matrix (fraction); higher = more synergy
Procedure, shortened: (§1)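 Cell lines grown in DMEM/F12 or RPMI with 10% FBS were plated in 1536-well plates and held 24 hours at 37°C, 5% CO2 before 72 hours of exposure to two-drug dose matrices, with DMSO typically at 0.2%. CellTiter-Glo 2.0 luminescence gave viability, which was converted to inhibition. Vehicle wells were set to 0 and blank wells to 1. Combination Emax is the second-highest inhibition in the matrix, and Bliss excess is the observed combination effect minus the expected EA + EB − EA·EB, where EA and EB are the single-agent effects.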

[1] = system: JHH-2 (Hepatocellular Carcinoma); assay: as above
Procedure, shortened: as §1

[2] = system: KYSE-220 (Esophageal Squamous Cell Carcinoma); assay: as above
Procedure, shortened: as §1

EW-7 (Ewing's Sarcoma) = assay: as above
Procedure, shortened: as §1

[3] = system: NCI-H441 (Lung Adenocarcinoma); assay: as above
Procedure, shortened: as §1

[4] = system: UACC-812 (Breast Carcinoma); assay: as above
Procedure, shortened: as §1

769-P (Kidney Carcinoma) = assay: as above
Procedure, shortened: as §1

[5] = system: MHH-ES-1 (Ewing's Sarcoma); assay: as above
Procedure, shortened: as §1

[6] = system: NCI-H1651 (Lung Adenocarcinoma); assay: as above
Procedure, shortened: as §1

PEO1 (Ovarian Carcinoma) = assay: as above
Procedure, shortened: as §1

IM-9 (Non-Cancerous) = assay: combination Emax (second highest fraction inhibited in the dose matrix, 72 h); higher = more inhibition; extreme values may be limits of the assay
Procedure, shortened: as §1

WM1552C (Melanoma) = assay: as above
Procedure, shortened: as §1

[7] = system: JHU-022 (Oral Cavity Carcinoma); assay: as above
Procedure, shortened: as §1
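Wherever Bliss excess, mean over the matrix is given: after 72 h of two-drug dosing.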

SMILES | Bliss excess (KP-N-YN (Neuroblastoma)) | Bliss excess [1] | Bliss excess [2] | Bliss excess (EW-7 (Ewing's Sarcoma)) | Bliss excess [3] | Bliss excess [4] | Bliss excess (769-P (Kidney Carcinoma)) | Bliss excess [5] | Bliss excess [6] | Bliss excess (PEO1 (Ovarian Carcinoma)) | combination Emax (IM-9 (Non-Cancerous)) | combination Emax (WM1552C (Melanoma)) | combination Emax [7]
C=CCn1c(=O)c2cnc(Nc3ccc(N4CCN(C)CC4)cc3)nc2n1-c1cccc(C(C)(C)O)n1 [AZD1775] + CCc1c2c(nc3ccc(O)cc13)-c1cc3c(c(=O)n1C2)COC(=O)[C@]3(O)CC [SN-38] (first compound max 1 µM, partner max 0.3 µM) | -0.0339 | 0.106 | -0.0563 | -0.0501 | -0.0906 | -0.0472 | -0.0084 | -0.0073 | -0.0342 | -0.0267 | 1 | 0.611 | 0.783
C=CCn1c(=O)c2cnc(Nc3ccc(N4CCN(C)CC4)cc3)nc2n1-c1cccc(C(C)(C)O)n1 [AZD1775] + Nc1ccn([C@@H]2O[C@H](CO)[C@@H](O)C2(F)F)c(=O)n1 [Gemcitabine] (first compound max 1 µM, partner max 0.3 µM) | – | 0.0264 | 0.0029 | 0.0396 | -0.0298 | -0.0613 | – | 0.0359 | -0.0104 | 0.0712 | 1 | 0.72 | 0.617
CN(CCO)CC[C@H](CSc1ccccc1)Nc1ccc(S(=O)(=O)NC(=O)c2ccc(N3CCC([C@@H](O)c4ccccc4-c4ccc(Cl)cc4)CC3)cc2)cc1S(=O)(=O)C(F)(F)F [AZD4320] + CS(=O)(=O)CCNCc1ccc(-c2ccc3ncnc(Nc4ccc(OCc5cccc(F)c5)c(Cl)c4)c3c2)o1 [Lapatinib] (first compound max 1 µM, 7x7, partner max 10 µM) | 0.0811 | 0.0312 | 0.0087 | 0.138 | -0.0156 | -0.0066 | -0.0042 | 0.136 | 0.0395 | 0.0311 | 0.974 | 0.571 | 0.784
Cc1c2c(nn1C)CSCc1cc(n(C)n1)CSc1cc(c3ccccc3c1)OCCCc1c(C(=O)O)n(C)c3c-2c(Cl)ccc13 [AZD5991] + CC(=O)O[C@H]1C(=O)[C@@]2(C)[C@H]([C@H](OC(=O)c3ccccc3)[C@]3(O)C[C@H](OC(=O)[C@H](O)[C@@H](NC(=O)c4ccccc4)c4ccccc4)C(C)=C1C3(C)C)[C@]1(OC(C)=O)CO[C@@H]1C[C@@H]2O [Paclitaxel] (first compound max 1 µM, 7x7, partner max 3 µM) | -0.0275 | 0.017 | -0.006 | 0.0625 | -0.0193 | 0.0968 | -0.0044 | -0.009 | -0.0345 | -0.0624 | 1 | 0.989 | 0.371
Cc1c2c(nn1C)CSCc1cc(n(C)n1)CSc1cc(c3ccccc3c1)OCCCc1c(C(=O)O)n(C)c3c-2c(Cl)ccc13 [AZD5991] + CS(=O)(=O)CCNCc1ccc(-c2ccc3ncnc(Nc4ccc(OCc5cccc(F)c5)c(Cl)c4)c3c2)o1 [Lapatinib] (first compound max 1 µM, 7x7, partner max 10 µM) | 0.0426 | -0.063 | 0.0157 | 0.033 | -0.0054 | 0.0603 | 0.0329 | 0.0286 | -0.0015 | -0.0352 | 0.93 | 0.693 | 0.705
Cc1c2c(nn1C)CSCc1cc(n(C)n1)CSc1cc(c3ccccc3c1)OCCCc1c(C(=O)O)n(C)c3c-2c(Cl)ccc13 [AZD5991] + Nc1ccn([C@@H]2O[C@H](CO)[C@@H](O)C2(F)F)c(=O)n1 [Gemcitabine] (first compound max 1 µM, 7x7, partner max 0.3 µM) | – | -0.005 | 0.0842 | -0.0158 | 0.0106 | -0.0041 | -0.0637 | – | 0.0582 | -0.0523 | 1 | 0.899 | 0.659
C[C@@H]1COCCN1c1cc(C2([S@](C)(=N)=O)CC2)nc(-c2ccnc3[nH]ccc23)n1 [AZD6738] + C1CC(C1)(C(=O)[O-])C(=O)[O-].N.N.[Pt+2] [Carboplatin] (first compound max 10 µM, 7x7, partner max 10 µM) | -0.0177 | -0.0309 | -0.0021 | -0.0315 | -0.0436 | -0.0423 | -0.0233 | -0.0078 | -0.0327 | -0.0595 | 0.966 | 0.564 | 0.513
C[C@@H]1COCCN1c1cc(C2([S@](C)(=N)=O)CC2)nc(-c2ccnc3[nH]ccc23)n1 [AZD6738] + Nc1ccn([C@@H]2O[C@H](CO)[C@@H](O)C2(F)F)c(=O)n1 [Gemcitabine] (first compound max 10 µM, 7x7, partner max 0.3 µM) | – | 0.0069 | -0.0686 | 0.0313 | 0.0418 | 0.0592 | -0.0475 | 0.0624 | 0.039 | 0.0764 | 1 | 0.868 | 0.695
C[C@@H](Nc1cc(F)cc(F)c1)c1cc(C(=O)N(C)C)cc2c(=O)cc(N3CCOCC3)oc12 [AZD8186] + C1CN(CCC1(C(=O)N[C@@H](CCO)C2=CC=C(C=C2)Cl)N)C3=NC=NC4=C3C=CN4 [AZD5363] (first compound max 10 µM, 7x7, partner max 10 µM) | -0.0765 | -0.0637 | -0.0132 | -0.03 | -0.0392 | -0.0187 | -0.0459 | 0.0026 | -0.0302 | -0.0405 | 0.57 | 0.339 | 0.494
C[C@@H](Nc1cc(F)cc(F)c1)c1cc(C(=O)N(C)C)cc2c(=O)cc(N3CCOCC3)oc12 [AZD8186] + CC(=O)c1c(C)c2cnc(Nc3ccc(N4CCNCC4)cn3)nc2n(C2CCCC2)c1=O [Palbociclib] (first compound max 10 µM, 7x7, partner max 10 µM) | 0.0108 | -0.0282 | -0.0494 | 0.045 | 0.0155 | 0.0506 | 0.0354 | 0.108 | -0.0192 | -0.026 | 0.682 | 0.352 | 0.512
C[C@@H](Oc1cc(-c2cnn(C3CCNCC3)c2)cnc1N)c1c(Cl)ccc(F)c1Cl [Crizotinib] + CC1=C(C(=CC=C1)Cl)NC(=O)C2=CN=C(S2)NC3=CC(=NC(=N3)C)N4CCN(CC4)CCO [Dasatinib] (first compound max 10 µM, 7x7, partner max 2 µM) | -0.0895 | -0.0101 | -0.0166 | -0.0072 | 0.0104 | -0.0135 | -0.0405 | -0.0279 | -0.0149 | -0.0226 | 0.974 | 0.959 | 0.648
C[C@@H](Oc1cc(-c2cnn(C3CCNCC3)c2)cnc1N)c1c(Cl)ccc(F)c1Cl [Crizotinib] + Cn1cnc2c(F)c(Nc3ccc(Br)cc3Cl)c(C(=O)NOCCO)cc21 [Selumetinib] (first compound max 10 µM, 7x7, partner max 10 µM) | -0.105 | 0.0094 | 0.0436 | -0.0101 | 0.0148 | -0.0437 | -0.0213 | -0.0236 | -0.0478 | -0.0013 | 1 | 0.864 | 0.496
CS(=O)(=O)CCNCc1ccc(-c2ccc3ncnc(Nc4ccc(OCc5cccc(F)c5)c(Cl)c4)c3c2)o1 [Lapatinib] + Cn1cnc2c(F)c(Nc3ccc(Br)cc3Cl)c(C(=O)NOCCO)cc21 [Selumetinib] (first compound max 10 µM, 7x7, partner max 10 µM) | -0.0666 | -0.0273 | -0.0056 | 0.0166 | -0.0353 | -0.0001 | 0.0368 | 0.0015 | -0.0355 | -0.0453 | 0.994 | 0.444 | 0.702
O=C(c1cc(Cc2n[nH]c(=O)c3ccccc23)ccc1F)N1CCN(C(=O)C2CC2)CC1 [Olaparib] + CC1(C)CCC(CN2CCN(c3ccc(C(=O)NS(=O)(=O)c4ccc(NCC5CCOCC5)c([N+](=O)[O-])c4)c(Oc4cnc5[nH]ccc5c4)c3)CC2)=C(c2ccc(Cl)cc2)C1 [Venetoclax] (first compound max 10 µM, 7x7, partner max 1 µM) | 0.186 | -0.0527 | -0.0369 | 0.0125 | -0.0407 | -0.0202 | 0.0116 | 0.0283 | 0.001 | -0.0786 | 0.835 | 0.319 | 0.174
O=C(c1cc(Cc2n[nH]c(=O)c3ccccc23)ccc1F)N1CCN(C(=O)C2CC2)CC1 [Olaparib] + CN(CC[C@H](CSC1=CC=CC=C1)NC2=C(C=C(C=C2)S(=O)(=O)NC(=O)C3=CC=C(C=C3)N4CCC(CC4)[C@H](C5=CC=CC=C5C6=CC=C(C=C6)Cl)O)S(=O)(=O)C(F)(F)F)CCO [AZD4320] (first compound max 10 µM, 7x7, partner max 1 µM) | 0.0322 | -0.0363 | -0.0169 | 0.129 | -0.0587 | -0.0086 | -0.0143 | 0.0657 | 0.0253 | -0.083 | 0.924 | 0.484 | 0.163
O=C(c1cc(Cc2n[nH]c(=O)c3ccccc23)ccc1F)N1CCN(C(=O)C2CC2)CC1 [Olaparib] + COc1nnc2ccc(N3CCC(c4ccc(OCCN5CCN(C)C(=O)[C@H]5C)cc4)CC3)nn12 [AZD5153] (first compound max 10 µM, 7x7, partner max 1 µM) | -0.0142 | -0.0195 | -0.045 | 0.0362 | -0.0779 | -0.0384 | -0.0374 | 0.0286 | -0.0044 | -0.0367 | 0.752 | 0.376 | 0.35
O=C(c1cc(Cc2n[nH]c(=O)c3ccccc23)ccc1F)N1CCN(C(=O)C2CC2)CC1 [Olaparib] + Cc1c2c(nn1C)CSCc1cc(n(C)n1)CSc1cc(c3ccccc3c1)OCCCc1c(C(=O)O)n(C)c3c-2c(Cl)ccc13 [AZD5991] (first compound max 10 µM, 7x7, partner max 1 µM) | -0.068 | -0.0539 | -0.0573 | 0.015 | -0.054 | -0.0301 | 0.0074 | 0.0108 | -0.0207 | -0.069 | 0.903 | 0.856 | 0.0997
Cc1nc(-c2cn3c(n2)-c2ccc(-c4cnn(C(C)(C)C(N)=O)c4)cc2OCC3)n(C(C)C)n1 [Taselisib] + O=C(Nc1ccc2[nH]nc(-c3ccncc3)c2c1)[C@@H]1CCN(CC(=O)N2CCN(c3ccc(-c4ncccn4)cc3)CC2)C1 [SCH772984] (first compound max 10 µM, 7x7, partner max 5 µM) | 0.0278 | -0.0398 | 0.116 | 0.0128 | 0.0123 | 0.0095 | 0.0852 | 0.102 | 0.0132 | 0.0874 | 0.851 | 0.813 | 0.769
